In patent US4444776A, “Dipyrido (4,3-B) (3,4-F) indoles, process for obtaining them, therapeutical use and pharmaceutical compositions” (priority 1977, dated 1984):

Tests used:
[1] = tested on: L 1210 leukemia; experiment: Test 10: comparison of antitumoral activity with known products, L 1210 (Tables V-VII); type: in vivo, mouse; details: J+3
Description: Test 10: Comparison of the antitumoral activity of the compound according to example 7 with that of known products
The compound of example 7, i.e. 1-(γ-diethylaminopropyl)amino-5-methyl-dipyrido-[4,3-b][3,4-f] indole or known compounds were injected into L 1210 leukemic mice 1 or 3 days after the inoculation of the cells at the doses indicated in tables V to VII and the mean survival time (MST) and the precentage of increased life span (ILS %) were measured.
Indications concerned the known products used in this example and particularly their antitumoral properties, their secondary effects and their use in man may be found in "La Chimiotherapie des Cancers", by G. MATHE and M. KENIS Expansion Scientifique Francaise, 3rd edition, Paris 1975.

[2] = tested on: mice; experiment: Test 21: toxicity after intraperitoneal injection; details: for time of deaths after drug administration: IP; for minimal quantity resulting in 100% deaths: mouse, in vivo, ip, 43200 min
Description: All drugs were dissolved in aqueous solutions adjusted at pH 5 with acetic acid and inoculated to the mice under a volume of 0.1 ml I.P. after dilution in Mac Coy's medium.
The toxicity of the drugs after intraperitoneal injection was estimated from the mortality rate up to the 30th day.

[3] = tested on: L1210 leukemia; experiment: Test 17: length of substituting chain, L1210 (Table XIII); type: in vivo, mouse; details: day +4
Description: Test 17: Relationship between the length of the substituting chain and the activity.
However compound 21 is less toxic (50 mg/kg for compound 21 and 25 mg/kg for compound 23), it has a higher ILS% than compound 23 and 1 mouse survived up to 60 days.

[4] = tested on: L 1210 leukemia; experiment: Test 11: L 1210 leukemic mice, examples 7 and 8 (Table VIII); type: in vivo, mouse; design: MTS: unit not given beside the values; details: J+1
Description: This test was carried out with 10^3, 10^4 and 10^5 leukemic cells on day J. This test was also carried out with the compound of example 7, i.e. 1-[(γ-diethylaminopropyl)amino]-5-methyl-dipyrido [4,3-b][3,4-f] indole (compound 21).

[5] = tested on: Lewis carcinoma (3LL); experiment: Test 13: Lewis carcinoma, antimetastasic effect; type: in vivo, BDF1 mice
Description: "carcinome pulmonaire de Lewis" (3LL), K. SUGIURA and C. C. STOCK," Cancer Res. 1955 15 38-51.
In this test, cells (10^6 cells) removed from a tumour-carrying mouse were injected into mice(BDF1) by the IM route. The mice developed, 10 to 15 days after the inoculation, a tumour at the spot where the injection was made. On the other hand, these cells made metastasis in the lung, forming colonies on the pulmonary surface. The antitumoral and antimetastasic effect of a product may therefore be judged on mice thus treated.
Investigation of the antimetastasic effect of the compounds of examples 7 and 8 of the invention
10^6 cells taken from a tumour-carrying mouse were injected by the IM route (left-band paw) into groups of 10 mice and the compounds to be tested were inoculated by the IP route on day J+5 by single or fractioned injection. The mean survival time (MST) and the increased life span (ILS %) were determined.

[6] = tested on: L1210 leukemia; experiment: Test 16: structure-activity of R'1 substitution, L1210 (Table XII); type: in vivo, mouse (C57B16xDBA/2)F1; details: for 60 days surv. / ILS % / Range of death: day +1
Description: Test 16: Relationship between structure and activity of various dipyrido indoles differing by the R'1 substitution.
L1210 leukemia has been maintained by weekly passages on (C57B16xDBA/2)F1 mice. On day 0, mice were inoculated by I.P. route with various numbers of L1210 ascitic tumor cells in volumes of 0.1 ml. Subsequently as indicated, drugs were administrated in Ca^++ and Mg^++ free PBS solutions (Gibco) or in Mac Coy's medium (Gibso or Microbiological Associates). […]

[7] = Table V, 10^4 cells, doses mg/mouse: example 7 0.2, Thiotepa 0.1, Mitomycine 0.016, BCNU 0.1, Methotrexate 0.250
[8] = Table V, 10^4 cells, mg/mouse: example 7 0.2, Thiotepa 0.1, Mitomycine 0.016, BCNU 0.1, Methotrexate 0.250, Endoxan 4
[9] = Table VI, 10^5 cells, mg/mouse: Thiotepa 0.1, Mitomycine C 0.016, BCNU 0.1, Methotrexate 0.250, example 7 0.2, Endoxan 4

SMILES: S=P(N1CC1)(N1CC1)N1CC1 [Thiotepa]
- ILS % [1, 7]: 0%
- MTS (mean survival time) [1, 7]: 11
- Range of death [1, 8]: 10 to 11 days
- ILS % [1, 9]: 1.54%
- MTS (mean survival time) [1, 9]: 9.2
- Range of death [1, 9]: 9-10

SMILES: CCN(CC)CCCC(C)Nc1nccc2c(C)c3[nH]c4ccncc4c3cc12 (stereo not drawn) [Example 10, 1-[(α-methyl-σ-diethylamino-butyl)-amino]-5-methyl-dipyrido-[4,3-b][3,4-f] indole]
- time of deaths after drug administration [2]: 4 to 6 days
- minimal quantity resulting in 100% deaths [2]: 50 mg/kg
- ILS % [3]: 56.25%
- Survivors up to 60 days [3]: 0
- MST ([3]; control MST 11.2): 17.5
- Range of death ([3]; control MST 11.2): 12-20

SMILES: CN(Cc1cnc2nc(N)nc(N)c2n1)c1ccc(C(=O)N[C@@H](CCC(=O)O)C(=O)O)cc1 [Methotrexate]
- ILS % [1, 7]: 44.62%
- MTS (mean survival time) [1, 7]: 15.9
- Range of death [1, 8]: 15 to 17 days
- ILS % [1, 9]: 39.35%
- MTS (mean survival time) [1, 9]: 12.62
- Range of death [1, 9]: 12-14

SMILES: CO[C@@]12[C@H](COC(N)=O)C3=C(C(=O)C(C)=C(N)C3=O)N1C[C@@H]1N[C@@H]12 [Mitomycine C]
- ILS % [1, 7]: 4.95%
- MTS (mean survival time) [1, 7]: 11.54
- Range of death [1, 8]: 10 to 15 days
- ILS % [1, 9]: 0%
- MTS (mean survival time) [1, 9]: 9.06
- Range of death [1, 9]: 9-10

SMILES: Cc1c2ccnc(NCCCN(C)C)c2cc2c1[nH]c1ccncc12 [Example 8, 1-(γ-dimethylaminopropyl)amino-5-methyl-dipyrido-[4,3-b][3,4-f] indole]
- ILS % ([4]; 10^3 cells, 0.05 mg/mouse): 34.9%
- Number of surviving mice ([4]; 10^3 cells, 0.05 mg/mouse): 1
- ILS % ([4]; 10^3 cells, 0.1 mg/mouse): 50.5%
- MTS ([4]; 10^3 cells, 0.1 mg/mouse): 16.4
- Number of surviving mice ([4]; 10^3 cells, 0.1 mg/mouse): 3
- ILS % ([4]; 10^4 cells, 0.05 mg/mouse): 34.9%
- Number of surviving mice ([4]; 10^4 cells, 0.05 mg/mouse): 1
- ILS % ([4]; 10^4 cells, 0.1 mg/mouse): 25.7%
- MTS ([4]; 10^4 cells, 0.1 mg/mouse): 13.7
- Number of surviving mice ([4]; 10^4 cells, 0.1 mg/mouse): 3
- ILS % ([4]; 10^5 cells, 0.05 mg/mouse): 28.1%
- MTS ([4]; 10^5 cells, 0.05 mg/mouse): 11.6
- ILS % ([4]; 10^5 cells, 0.1 mg/mouse): 52.5%
- MTS ([4]; 10^5 cells, 0.1 mg/mouse): 13.8
- time of deaths after drug administration [2]: 3 to 5 days
- minimal quantity resulting in 100% deaths [2]: 50 mg/kg
- protective action concerning metastasic pulmonary invasion of the lung ([5]; IP from J+5): give a protective action
- ILS % ([5]; J+5, 5 mg/kg): 9.8%
- MST ([5]; J+5, 5 mg/kg, controls 25): 27.44
- 60 days surv. ([6]; 10^4 cells, 2.5 mg/kg): 1
- ILS % ([6]; 10^4 cells, 2.5 mg/kg): 34.9%
- Range of death ([6]; 10^4 cells, 2.5 mg/kg): 10-19
- 60 days surv. ([6]; 10^5 cells, 5 mg/kg): 0
- ILS % ([6]; 10^5 cells, 5 mg/kg): 52.5%
- Range of death ([6]; 10^5 cells, 5 mg/kg): 11-16
- antitumoral activity compared with Ellipticinium acetate (HUM) ([6]; Table XII summary): compete favorably with Ellipticinium acetate (HUM)
